Assays:
COX-2 gene = test: RT-PCR analysis of COX-2 mRNA; type: cell-based, human; details: HUVEC, combination of TNF-α (1 ng/ml) and IL-1β (20 ng/ml), FIG. 5
Procedure: For analysis of IL-13, human vascular endothelial cells (1.2×10^4 cells/cm^2) were stimulated with cPGI (10 μM) for 12 h, and total RNA was prepared from stimulated cells with Isogen (Nippon Gene). For analysis of COX-2, human vascular endothelial cells (1.2×10^4 cells/cm^2) were pretreated with TNF-α (1 ng/ml) and IL-1b (20 ng/ml) for 1 h, and then treated with cPGI (0, 10 μM), anti-human IL-13 monoclonal antibody (0, 0.5 μg/ml) and control IgG (0, 0.5 μg/ml) for 12 h to prepare total RNA. The total RNA (0.5 μg) was used for analysis by SuperScript RT-PCR system (Invitrogen) according to the manufacturer's instructions. The oligonucleotide primers used were IL-13-s (5′-[…]-3′ (SEQ ID NO: 6); sense) and IL-13-as (5′-[…]-3′ (SEQ ID NO: 7); antisense) for human IL-13, β-actin-s (5′-[…]-3′ (SEQ ID NO: 8); sense) and β-actin-as (5′-[…]-3′ (SEQ ID NO: 9); antisense) for human β-actin, and COX-2-s (5′-[…]-3′ (SEQ ID NO: 10); sense) and COX-2-as (5′-[…]-3′ (SEQ ID NO: 11); antisense) for human COX-2. For each PCR amplification, 1 μl of cDNA was used in a 50 μl reaction. Reverse transcription-PCR (RT-PCR) for β-actin (25 cycles) was used as an internal control for mRNA abundance. For IL-13 and COX-2 genes, the number of cycles ranged from 25 to 45. […] Samples were normalized based on equivalent expression of β-actin.

PGIS = test: RNAi silencing of PGIS, immunoblotting with anti-PGIS antibody; type: cell-based, human; details: HUVEC, siRNA treatment for 10 days, FIG. 6A
Description: siRNA duplexes with the following sense and antisense sequences were made: PGIS1, 5′-[…]-3′ (SEQ ID NO: 12; sense) and 5′-[…]-3′ (SEQ ID NO: 13; antisense); PGIS2, 5′-[…]-3′ (SEQ ID NO: 14; sense) and 5′-[…]-3′ (SEQ ID NO: 15; antisense); PGIS3, 5′-[…]-3′ (SEQ ID NO: 16; sense) and 5′-[…] (SEQ ID NO: 17; antisense); and PGIS4, 5′-[…]-3′ (SEQ ID NO:, 18; sense) and 5′-[…]-3′ (SEQ ID NO: 19; antisense). siRNAs were synthesized and annealed by Dharmacon Research Inc. (Lafayette, CO). Control non-silencing siRNA, a duplex of sense (5′-UUCUCCGAACGUGUCACGUdTdT-3′; SEQ ID NO: 20) and antisense (5′-ACGUGACACGUUCGGAGAAdTdT-3′; SEQ ID NO: 21) sequences, was purchase from Qiagen (Valencia, Calif.). The cells were initially transfected with 200 pmol per well of the annealed RNA mixture or the same amount of control siRNA using LipofectAMINE2000 (Invitrogen), and 12 h later secondly transfected with the same amount of siRNAs using HVJ-liposome transfection kit (GenomeONE; Ishihara Sangyo, Osaka, Japan) according to the manufacturers' instructions. […] Microsomal fractions of the cells were prepared and analyzed by immunoblotting with anti-PGIS P4 polyclonal antibody as described previously (Hatae et al., J. Biol. Chem. (2001) 276: 46260-7). […] The incubation media were collected, and amounts of 6-keto-PGI1α or IL-13 were measured with ELISA kit.

[1] = system: adhesion between human vascular endothelial cells and monocytic leukocyte U937 cells; test: Adherence assay of U937 cells to endothelial monolayers; type: cell-based; details: HUVEC, 24 h
Procedure: HUVEC (2.5×10^4 cells/cm^2) were cultured in 12-well plates. After 24 h, confluent monolayers were used for adherence assays. Monolayers were preincubated in EGM-2 containing 2% FBS, 0 or 10 ng/ml TNF-α, 0 or 10 ng/ml IL-13 and 0 or 10 μM cPGI with or without anti-IL-13 monoclonal antibody (0.5 μg/ml) at 37° C. for 0 to 24 h. Human monocyte leukocyte U937 cells were cultured in RPMI 1640 (Gibco-Invitrogen) containing 10% FBS, 100 U/ml penicillin and […] streptomycin , labeled with 2.5 μM calcein-AM (Molecular Probes, Eugene, Oreg.) at room temperature for 45 min, washed and resuspended in serum-free EGM-2. The calcein-labeled U937 cells (8×10^4 cells/well) were added to pretreated endothelial cells and incubated with cPGI (0, 10 μM), recombinant IL-13 (0, 10 ng/ml) and anti-IL-13 monoclonal antibody (0, 0.5 μg/ml). U937 cells were allowed to adhere to pretreated endothelial cells for 30 min at 37° C. Adherence was assessed with a fluorescence image analyzer (FLA-2000; Fujifilm, Tokyo, Japan). Plates were scanned before and after washing for total and adherent cells, respectively, and relative adherence was calculated (fold of control).

[2] = system: endogenous PGI2 production; test: PGI2 assay (6-keto-PGF1α ELISA); type: cell-based, human; details: HUVEC, TNF-α 0, 0.1, 1 or 10 ng/ml, 24 h, FIG. 4A
Procedure: (§1) Human vascular endothelial cells (1.2×10^4 cells/cm^2) were cultured in EGM-2 containing 2% FBS and several concentrations of cPGI with or without TNF-α for 24 h. Incubation media were collected and stored at −80° C. before assay. Amounts of IL-13 were measured with human IL-13 ELISA system (Amersham Pharmacia Biotech, Buckinghamshire, UK) and amounts of PGI2 were measured as the amounts of 6-keto-PGI1α, a stable metabolite of PGI2, with 6-keto-PGI1α ELISA kit (Cayman Chemical Co., Ann Arbor, Mich.) according to the manufacturers' instructions.
siRNA duplexes with the following sense and antisense sequences were made: PGIS1, 5′-[…]-3′ (SEQ ID NO: 12; sense) and 5′-[…]-3′ (SEQ ID NO: 13; antisense); PGIS2, 5′-[…]-3′ (SEQ ID NO: 14; sense) and 5′-[…]-3′ (SEQ ID NO: 15; antisense); PGIS3, 5′-[…]-3′ (SEQ ID NO: 16; sense) and 5′-[…] (SEQ ID NO: 17; antisense); and PGIS4, 5′-[…]-3′ (SEQ ID NO:, 18; sense) and 5′-[…]-3′ (SEQ ID NO: 19; antisense). siRNAs were synthesized and annealed by Dharmacon Research Inc. (Lafayette, CO). […] Microsomal fractions of the cells were prepared and analyzed by immunoblotting with anti-PGIS P4 polyclonal antibody as described previously (Hatae et al., J. Biol. Chem. (2001) 276: 46260-7). […] The incubation media were collected, and amounts of 6-keto-PGI1α or IL-13 were measured with ELISA kit.

PPRE (PPARδ activation) = test: PPREx3-luciferase reporter assay; type: cell-based, human; details: HUVEC treated with TNF-α 0-10 ng/ml, 24 h, FIG. 4B
Procedure: Primary cultured human umbilical vein endothelial cells (HUVEC) and human aortic endothelial cells (HAEC) were obtained from Kurabo Co. Ltd. (Tokyo, Japan) and were cultured in EGM-2 growth medium supplemented with 2% fetal bovine serum (FBS) and a mixture of growth factors according to the supplier's instructions. Total RNA from the cells in culture was prepared with Isogen (Nippon Gene, Tokyo, Japan). Human embryonic kidney HEK-293 cells were cultured in DMEM containing 10% FBS, 2 mM L-glutamine, 100 U/ml penicillin and […] streptomycin as described previously (Hatae et al., J. Biol. Chem. (2001) 276: 46260-7). […] HEK-293 cells were transfected with DNA using lipofectAMINE (Invitrogen, Carlsbad, Calif.) as described previously (Hatae et al., J. Biol. Chem. (2001) 276: 46260-7). Human vascular endothelial cells were transfected with TransIT LT-1 (PanVera Co., Madison, Wis.). Transfections were performed at a ratio of 1 μg of DNA to 3.0 μl of the reagents, and cells were incubated in serum-free EGM-2 at 37° C. for 5 h. Subsequently, cells were grown in fresh EGM-2 containing 2% FBS and a mixture of growth factors for 12 h before analysis. For reporter assay, human vascular endothelial cells (1.2×10^4 cells/cm^2) were cotransfected with 0.2 μg of the PPREx3-luciferase reporter vector and 0.1 μg of β-galactosidase expression vector by use of TransIT LT-1. After 17 h of transfection, cells were washed with PBS, incubated in EGM-2 containing 2% FBS and cPGI (0-100 μM) for 24 h at 37° C., and subjected to luciferase assay as described previously (Hatae et al., J. Biol. Chem. (2001) 276: 46260-7). The luciferase activity of the extract was normalized to β-galactosidase activity.

IL-13 = IL-13 ELISA of culture medium of human vascular endothelial cells; type: cell-based; details: HUVEC treated with TNF-α 0-10 ng/ml, 24 h, FIG. 4C
Procedure: as §1
siRNA duplexes with the following sense and antisense sequences were made: PGIS1, 5′-[…]-3′ (SEQ ID NO: 12; sense) and 5′-[…]-3′ (SEQ ID NO: 13; antisense); PGIS2, 5′-[…]-3′ (SEQ ID NO: 14; sense) and 5′-[…]-3′ (SEQ ID NO: 15; antisense); PGIS3, 5′-[…]-3′ (SEQ ID NO: 16; sense) and 5′-[…] (SEQ ID NO: 17; antisense); and PGIS4, 5′-[…]-3′ (SEQ ID NO:, 18; sense) and 5′-[…]-3′ (SEQ ID NO: 19; antisense). siRNAs were synthesized and annealed by Dharmacon Research Inc. (Lafayette, CO). Control non-silencing siRNA, a duplex of sense (5′-UUCUCCGAACGUGUCACGUdTdT-3′; SEQ ID NO: 20) and antisense (5′-ACGUGACACGUUCGGAGAAdTdT-3′; SEQ ID NO: 21) sequences, was purchase from Qiagen (Valencia, Calif.). The cells were initially transfected with 200 pmol per well of the annealed RNA mixture or the same amount of control siRNA using LipofectAMINE2000 (Invitrogen), and 12 h later secondly transfected with the same amount of siRNAs using HVJ-liposome transfection kit (GenomeONE; Ishihara Sangyo, Osaka, Japan) according to the manufacturers' instructions. The cells were retransfected with the siRNAs every 3 days using LipofectAMINE2000 and HVJ-liposome, and used for analyses 10 days after transfection. Microsomal fractions of the cells were prepared and analyzed by immunoblotting with anti-PGIS P4 polyclonal antibody as described previously (Hatae et al., J. Biol. Chem. (2001) 276: 46260-7). The cells treated with siRNAs for 10 days were cultured in fresh EGM-2 containing 2% FBS and TNF-α (0, 10 ng/ml). with or without cPGI (10 μM) for 24 h. The incubation media were collected, and amounts of 6-keto-PGI1α or IL-13 were measured with ELISA kit.

HEK-293 cells = test: cDNA microarray analysis of cells expressing intracellular PGI2 (PGISwt vs inactive PGISC441A); type: cell-based, human; details: ratio of PGISwt to PGISC441A, 36 h
Procedure: HEK-293 cells (1.2×10^4 cells/cm^2) were transfected with expression vector for PGISwt or PGISC441A using LipofectAMINE (Invitrogen) and maintained in DMEM containing 10% FBS, 2 mM L-glutamine, 100 U/ml penicillin and […] streptomycin for 36 h. Poly(A+) mRNA (1.5 μg) was prepared from3×10^6 cells using Isogen (Nippon Gene) and Oligotex-dT30 super mRNA purification kit (Takara, Tokyo, Japan). Samples were analyzed by gene expression microarray (GEM) DNA tip containing 9,182 human cDNA clones (HUMAN UniGEM V Ver2.0, IncyteGenomics, Palo Alto, Calif.). Conversion of poly(A+) mRNA to cDNA with incorporation of Cy3- or Cy5-labeled deoxynucleotide-triphosphates (dNTPs), hybridization to arrays coated on glass, quality control and normalization were performed by IncyteGenomics. All data analyses were performed using an average fold change of two assays, and data were expressed as the ratio of PGISwt to PGISC441A.
In order to identify the downstream mediators of intracellular PGI2-PPARδ signaling pathway, a cDNA microarray analysis of human cells expressing intracellular PGI2 was performed. Based on precious studies of the inventors (Hatae et al., J. Biol. Chem. (2001) 276: 46260-7), a human embryonic kidney cell line (HEK-293) transfected with the expression vector for wild-type PGIS (PGISwt) was used to achieve endogenous expression of intracellular PGI2.

With “IL-1: Recombinant human IL-1β, proinflammatory cytokine” the “expression of COX-2 mRNA” value (COX-2 gene) was “induced”.
With “control siRNA: Control non-silencing siRNA duplex (SEQ ID NO: 20, 21) from Qiagen (chain 1 UUCUCCGAACGUGUCACGUNN; chain 2 ACGUGACACGUUCGGAGAANN; listed as RNA, chemistry not fully specified)” the “endogenous expression of PGIS (Western analysis)” value (PGIS) was “no effect”.
TNF-α was tested, and the “adhesion between U937 cells and endothelial cells” value ([1]; TNF-α 10 ng/ml alone, FIG. 4D lanes 1 and 2) was “increase adhesion”, the “expression of COX-2 mRNA” value (COX-2 gene) was “induced” and the “endogenous PGI2 production” value [2] was “significantly induced”. The “relative luciferase activity of reporter vector containing PPRE” value (PPRE (PPARδ activation)) was “increased” and the “production of IL-13” value (IL-13) was “increased”.
In the case of CCCCC[C@H](O)/C=C/[C@@H]1[C@H]2C/C(=C/CCCC(=O)O)O[C@H]2C[C@H]1O [PGI2, prostacyclin], the “Differential expression, IL-13 (NM_002188)” value (HEK-293 cells) is reported as “+11.0”, the “Differential expression, Sjogren syndrome antigen (BF897247)” value (HEK-293 cells) is reported as “+2.8” and the “Differential expression, aldehyde dehydrogenase 1 family, member A1 (AI050734)” value (HEK-293 cells) is reported as “+2.5”. For the same compound, the “Differential expression, butyrophilin, subfamily 3, member A2 (AA482308)” value (HEK-293 cells) was “+2.7”, the “Differential expression, isopentenyl-diphosphate delta isomerase (BF698441)” value (HEK-293 cells) was “+2.9” and the “Differential expression, mal T-cell differentiation protein (NM_022439)” value (HEK-293 cells) was “+7.0 mal”.
With IL-13: recombinant human IL-13 the “TNF-α-induced monocytic leukocyte-endothelial cell adhesion” value ([1]; TNF-α 10 ng/ml plus antibody 0.5 μg/ml, cPGI 10 μM or IL-13 10 ng/ml, FIG. 4D lanes 3-5) was “inhibited”.

Source: patent US20050080140A1, “Method for treating or preventing inflammatory disorders” (AnGes MG, Inc., priority 2003, published 2005)
